Results: patent US8334260B2, “sFRP and peptide motifs that interact with sFRP and methods of their use” (The United States of America as represented by the …, priority 2001, dated 2012)
Entries after “also recorded” stand apart in the source; their conditions may differ. Where no end group is shown, it is not given here.

How the values were obtained:
sFRP-1 [1] = assay: ELISA of peptide/alkaline phosphatase fusion proteins binding to sFRP-1; parameters: species or system human; details: bacterial broths, sFRP-1-coated versus BSA-coated wells, pNPP at 405 nm
Procedure: Synthetic oligonucleotides encoding peptides of interest were ligated into the bacterial alkaline phosphatase fusion vector, pMY101, which had been digested with Sal I and Xho I (Yamabhai and Kay, Anal Biochem. 247:143-151, 1997). All recombinants were confirmed by DNA sequence analysis. Bacteria (E. coli, strain DH5αF′) transformed with the peptide/AP constructs were grown in Luria broth containing ampicillin (50 μg/mL) to an optical density of 0.5 (at 600 nm), treated with 1 mM isopropyl-β-D-thiogalactopyranoside and then incubated overnight at 37° C. Conditioned medium containing peptide/AP chimera was recovered by centrifugation at 7000 g for 15 minutes. Chimeric proteins in conditioned medium were stable when stored for a few weeks at 4° C. or for several months when stored at −80° C.
ELISA experiments were generally performed as previously described (Uren et al., J. Biol. Chem. 275:4374-4382, 2000), with modifications depending on the sFRP binding partner to be tested. Typically, wells were coated with 0.5 or 1 μg of sFRP-1, blocked with BSA (0.2%, 1%, or 4%) and then incubated with putative binding partner overnight at room temperature. When investigating the binding of peptide/AP chimeras, after aspiration of bacterial broths, wells were washed and incubated with p-nitrophenolphosphate (pNPP). Color development was determined at 405 nm with an ELISA reader. […] Following overnight incubation at room temperature, RANKL solutions were aspirated and bound RANKL was detected by sequential incubations with primary antibody to RANKL, secondary antibody coupled with AP and pNPP. […]
A set of peptide-alkaline phosphatase fusion proteins containing the peptide motifs (SEQ ID NOS: 14, 11, and 27) were generated. […] This qualitative difference between A-C2 (SEQ ID NO: 14), A-E4 (SEQ ID NO: 1), and B-B9 (SEQ ID NO: 27) derivatives was consistent with a quantitative difference noted during the ELISA screening of the respective phage. […]

RAW264.7 cells [2] = assay: RANKL-induced osteoclast formation in RAW264.7 cells; type: cell-based; details: RANKL 50 ng/mL, T cells added; 5, 1 and 0.5 μg/mL
Procedure: (§1) In some instances, experiments were performed either with adult mouse spleen cells or with RAW264.7 cells treated with M-CSF and RANKL as described in Quinn et al., Endocrinology 139:4424-4427, 1998. Where indicated, these assays were conducted in the presence or absence of splenic T cells. T cell fractions were prepared as described in Horwood et al., Journal of Clinical Investigation 101:595-603, 1998.
(§2) The effect of bacterially expressed CRD was assessed in three different cell culture models of osteoclast formation. These were: (1) bone marrow cells+RANKL+M-CSF, (2) the macrophage/monocyte cell line RAW264.7+RANKL, and (3) RAW264.7+TNFα+TGFβ (Horwood et al., Journal of Immunology 166:4915-4921, 2001; Quinn et al., Journal of Bone and Mineral Research. 16, 1787-1794, 2001).

sFRP-1 [3] = assay: Competition ELISA: soluble peptides against peptide/AP chimera binding to sFRP-1; parameters: species or system human; details: for inhibition of A-D9/AP chimera binding to sFRP-1: soluble peptide; for inhibition of A-C2/alkaline phosphatase fusion protein binding to sFRP-1: soluble peptide preincubated 30 min with chimera
Procedure: (§3) ELISA experiments were generally performed as previously described (Uren et al., J. Biol. Chem. 275:4374-4382, 2000), with modifications depending on the sFRP binding partner to be tested. Typically, wells were coated with 0.5 or 1 μg of sFRP-1, blocked with BSA (0.2%, 1%, or 4%) and then incubated with putative binding partner overnight at room temperature. When investigating the binding of peptide/AP chimeras, after aspiration of bacterial broths, wells were washed and incubated with p-nitrophenolphosphate (pNPP). Color development was determined at 405 nm with an ELISA reader. For competition experiments, soluble peptides were preincubated with peptide/AP chimeras in bacterial broth for 30 min at room temperature prior to transfer into ELISA wells coated with sFRP-1 or BSA. When testing RANKL binding to sFRP-1, serial dilutions of soluble RANKL were assayed in replicate. Following overnight incubation at room temperature, RANKL solutions were aspirated and bound RANKL was detected by sequential incubations with primary antibody to RANKL, secondary antibody coupled with AP and pNPP. Similar experimental designs were employed when other TNFα family members were examined for binding to sFRPs, and when sFRP-1 derivatives or sFRP-2 were the binding targets for RANKL.

[4] = system: co-cultures of primary osteoblasts and adult spleen cells; assay: Osteoclastogenesis co-culture of primary osteoblasts and adult spleen cells (TRAP+ cells); type: cell-based, mouse; details: for effect on TRAP+ multinucleated cells (osteoclast formation): 5 μg/mL with optimal doses of vitamin D3 (10^-8 M) and PGE2 (10^-7 M)
Procedure: Osteoblastic cells were prepared from the calvaria of newborn mice by digestion with 0.1% collagenase (Worthington Biochemical Co., Freefold, […]) and 0.2% dispase (Godo Shusei, Tokyo, Japan). […] Exp. Med. 182: 1461-1468, 1995). Osteoblastic cells were co-cultured with bone marrow or spleen cells as described previously (Udagawa et al., J. Exp. Med. 182: 1461-1468, 1995). In short, primary osteoblastic cells (2×10^4/well) and nucleated spleen cells (1×10^6/well) or marrow cells (5×10^5/well) were co-cultured in 48-well plates (Corning Glass Inc., Corning, N.Y.) with 0.4 mL of α-MEM (GIBCO/BRL, Grand Island, N.Y.) containing 10% fetal bovine serum (Cytosystems, Castle Hill, NSW, Australia) in the presence of test chemicals. Cultures were incubated in quadruplicate and cells were replenished on day 3 with fresh medium. Osteoclast formation was evaluated after culturing for 6-7 days. Adherent cells were fixed and stained for tartrate-resistant acid phosphatase (TRAP), and the number of TRAP-positive osteoclasts was scored as described (Udagawa et al., J. Exp. Med. 182: 1461-1468, 1995). For TRAP staining, adherent cells were fixed with 4% formaldehyde in PBS for 3 minutes. After treatment with ethanol-acetone (50/50, vol/vol) for 1 minute, the well surface was air dried and incubated for 10 minutes at room temperature in an acetate buffer (0.1 M sodium acetate, pH 5.0) containing 0.01% naphthol AS-MX phosphate (Sigma) as a substrate and 0.03% red violet LB salt (Sigma) as a stain for the reaction product in the presence of 50 mM sodium tartrate. TRAP-positive cells appeared dark red, and those with three or more nuclei were scored as multinucleated and considered as osteoclasts. Validation of osteoclast formation was achieved using the specific marker of calcitonin receptor (CTR) expression and bone resorption. CTR expression was determined either by autoradiography with ^125I-salmon calcitonin or by immunohistochemical localization using an array of antibodies we have developed as described by Quinn et al., Bone 25:1-8, 1999.

adult mouse spleen cells = assay: RANKL and M-CSF induced osteoclast formation from adult mouse spleen cells; type: cell-based
Procedure: as §1

RANKL = target: T1, RANKL (Homo sapiens, UniProt O14788); assay: ELISA of soluble RANKL binding to wells coated with sFRP-1, sFRP-1 derivatives or sFRP-2; details: ELISA, coated wells versus BSA
T1 construct: For ELISA assays, recombinant soluble RANKL and TRAIL, and antibodies directed against these proteins were obtained from PeproTech; purchased PeproTech (Rocky Hill, N.J.)
T1 sequence (O14788 140-317): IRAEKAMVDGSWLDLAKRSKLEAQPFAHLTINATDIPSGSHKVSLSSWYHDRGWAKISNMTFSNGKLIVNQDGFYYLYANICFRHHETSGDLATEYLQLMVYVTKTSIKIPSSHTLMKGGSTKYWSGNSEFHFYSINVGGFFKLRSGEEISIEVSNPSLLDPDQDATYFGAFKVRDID
Procedure: as §3
The possibility that sFRP-1 (SEQ ID NO: 3) and RANKL interact directly with each other was tested using an ELISA assay. […] RANKL was then incubated in these wells and in adjacent wells that had only been treated with BSA.

RAW264.7 cells [5] = assay: RANKL-independent (TNFα-dependent) osteoclast formation in RAW264.7+TNFα+TGFβ; type: cell-based; details: present during the first three days of culture
Procedure: The effect of sFRP-1 was assessed upon a RANKL-independent method of osteoclast formation using the monocyte/macrophage cell line RAW264.7 (Quinn et al., Journal of Bone and Mineral Research. 16, 1787-1794, 2001) and was compared with that of osteoprotegerin (FIG. 14).
as §2

[6] = system: AC2/alkaline phosphatase chimera; assay: ELISA of sFRP-1 deletion mutants binding to AC2/alkaline phosphatase chimera; details: sFRP-1 deletion mutants coated on ELISA wells
Procedure: as §3, with “When testing RANKL binding to sFRP-1, serial dilutions of soluble RANKL were assayed in replicate.” left out, “Similar experimental designs were employed when other TNFα family members were examined for binding to sFRPs, and when sFRP-1 derivatives or sFRP-2 were the binding targets for RANKL.” left out
ELISA experiments were performed essentially as described above with a series of sFRP-1 deletion mutants (in Uren et al., J. Biol. Chem., 275: 4374-4382, 2000) to determine what region(s) of the protein were required for binding to the AC2/alkaline phosphatase chimera. […] Little binding was detected with derivatives that contained the CRD alone or the C-terminal region alone.

For “Alkaline phosphatase: alkaline phosphatase itself, control for the fusion proteins [reference compound]”, the “specific binding of peptide/alkaline phosphatase fusion protein to sFRP-1” value (sFRP-1 [1]) was “no preferential binding”.

For “A-C2 (SEQ ID NO: 14)/alkaline phosphatase fusion protein: A-C2 peptide fused to bacterial alkaline phosphatase (QGTLVDGRWLQL; also: fused to bacterial alkaline phosphatase)”, the “specific binding of peptide/alkaline phosphatase fusion protein to sFRP-1” value (sFRP-1 [1]) was “strong, highly specific binding”.

“A-D9/AP chimera: A-D9 peptide fused to alkaline phosphatase (WECAMYDGRCLT; cysteine pairing not given here; also: fused to alkaline phosphatase)” was tested, and the “specific binding of peptide/alkaline phosphatase fusion protein to sFRP-1” value (sFRP-1 [1]) was “bound specifically”.

For QGTLVDGRWLQL [A-C2], the “stimulation of TRAP+ multinucleated cell differentiation” value (RAW264.7 cells [2]) was “dose-dependent stimulation”, the “inhibition of A-D9/AP chimera binding to sFRP-1” value (sFRP-1 [3]) was “could inhibit binding” and the “inhibition of A-C2/alkaline phosphatase fusion protein binding to sFRP-1” value (sFRP-1 [3]) was “dose-dependent inhibition”. For the same molecule, the “effect on TRAP+ multinucleated cells (osteoclast formation)” value [4] was “ten-fold increase; also recorded: markedly stimulated”, the “time window of the effect on osteoclast formation” value ([4]; peptide present for different periods of the culture) was “only had an effect on osteoclast formation when it was present during day 0 to day 3” and the “effect on osteoclast formation, T cells removed” value (adult mouse spleen cells; T cells removed from adult spleen cells with antibody-coupled magnetic beads) was “no additional response”. For the same molecule, the “effect on osteoclast production” value (adult mouse spleen cells; peptide present during days 0-3, RANKL 50 ng/mL and M-CSF 25 ng/mL) was “caused an increase in osteoclast production”.

For “WECAMYDGRCLT (Peptide that binds sFRP) [A-D9]”, the “inhibition of A-D9/AP chimera binding to sFRP-1” value (sFRP-1 [3]) was “blocked in a dose-dependent manner” and the “inhibition of A-C2/alkaline phosphatase fusion protein binding to sFRP-1” value (sFRP-1 [3]) was “inhibited binding”.

B1: Al derivative: sFRP-1 deletion mutant that consists essentially of the Fz CRD (protein)
chain: MGIGRTEGGRRGAALGVLLALGGASGRGLGSEYDYVSFQSDIGPYQSGRFYTKPPQCVDIPADLRLCHNVGYKKMVLPNLLEHETMAEVKQQASSWVPLLNKNCHAGTQVFLCSLFAPVCLDRPIYPCRWLCEAVRDSCEPVMQFFGFYWPEMLKCDKFPEGDVCIAMTPQAYVEQKLISEEDLNSAVDHHHHHH
modifications: Fusion protein
notes: sFRP-1 deletion mutant that consists essentially of the Fz CRD
In the case of B1, the “binding to RANKL” value (RANKL) is reported as “retained good binding”.

B2: NHD: netrin homology domain of sFRP-1 (protein, listed as Homo sapiens)
chain: CIAMTPPNATEASKPQGTTVCPPCDNELKSEAIIEHLCASEFALRMKIKEVKKENGDKKIVPKKKKPLKLGPIKKKDLKKLVLYLKNGADCPCHQLDNLSHHFLIMGRKVKSQYLLTAIHKWDKKNKEFKNFMKKMKNHEC
For B2, the “effect on TRAP+ multinucleated cells (osteoclast formation)” value [4] was “not further enhanced”.

B3: OPG: osteoprotegerin, soluble TNF receptor family factor that binds RANKL (protein, UniProt O00300 22-401, looked up)
Tumor necrosis factor …: ETFPPKYLHYDEETSHQLLCDKCPPGTYLKQHCTAKWKTVCAPCPDHYYTDSWHTSDECLYCSPVCKELQYVKQECNRTHNRVCECKEGRYLEIEFCLKHRSCPPGFGVVQAGTPERNTVCKRCPDGFFSNETSSKAPCRKHTNCSVFGLLLTQKGNATHDNICSGNSESTQKCGIDVTLCEEAFFRFAVPTKFTPNWLSVLVDNLPGTKVNAESVERIKRQHSSQEQTFQLLKLWKHQNKDQDIVKKIIQDIDLCENSVQRHIGHANLTFEQLRSLMESLPGKKVGAEDIEKTIKACKPSDQILKLLSLWRIKNGDQDTLKGLMHALKHSKTYHFPKTVTQSLKKTIRFLHSFTMYKLYQKLFLEMIGNQVQSVKISCL
For B3, the “effect on TNFα-dependent osteoclast formation” value (RAW264.7 cells [5]) was “no effect”.

B4: Δ3 derivative: sFRP-1 deletion mutant containing all of the Fz CRD and a portion of the C-terminal region (protein)
chain: MGIGRTEGGRRGAALGVLLALGGASGRGLGSEYDYVSFQSDIGPYQSGRFYTKPPQCVDIPADLRLCHNVGYKKMVLPNLLEHETMAEVKQQASSWVPLLNKNCHAGTQVFLCSLFAPVCLDRPIYPCRWLCEAVRDSCEPVMQFFGFYWPEMLKCDKFPEGDVCIAMTPPNATEASKPQGTTVCPPCDNELKSEAIIEHLCASEFALRMKIKEVKKENGDKKIVPKKKKPLKLGPIKKKDLQAYVEQKLISEEDLNSAVDHHHHHH
modifications: Fusion protein
notes: sFRP-1 deletion mutant containing all of the Fz CRD and a portion of the C-terminal region
In the case of B4, the “binding to the AC2/alkaline phosphatase chimera” value [6] is reported as “Optimal binding”.
